Test results reported in patent US5541194A (priority 1987, dated 1996).
Like-named read-outs stand apart in the source and are kept apart here.

Key:
muscarinic receptors [1] = type: binding, Hooded Lister rats; conditions: displacement of 0.27 nM 3H-QNB; rat cerebral cortex membranes; 37° C., 30 min; ^+ tested as the oxalate salt, ^++ tested as the hydrochloride salt
muscarinic receptors [2] = assay: Radio ligand binding: displacement of muscarinic agonist 3H-Oxotremorine-M (3H-OXO-M) in rat cerebral cortex; set-up: species or system Hooded Lister rats; conditions: displacement of 2 nM 3H-OXO-M; rat cerebral cortex membranes; 37° C., 30 min; 2 mM magnesium chloride; ^+ tested as the oxalate salt, ^++ tested as the hydrochloride salt

| SMILES | IC50 (muscarinic receptors [1]) [nM] | IC50 (muscarinic receptors [2]) [nM] |
| --- | --- | --- |
| c1coc([C@@H]2CN3CC[C@@H]2C3)c1 (relative stereo) [Example E4, (±) exo-3-(Fur-2-yl)-1-azabicyclo[2.2.1]heptane] | 7000 | 88 |
| c1cc(C2CN3CCC2CC3)co1 (racemic) [Example E10, (±) 3-(Fur-3-yl)-1-azabicyclo[2.2.2]octane] | 19500 | 834 |
| c1ncc(C2CN3CCC2C3)o1 (racemic) [Example E12, (±) exo and endo-3-(1,3-Oxazol-5-yl)-1-azabicyclo[2.2.1]heptane] | 29000 | 150 |
| c1cc(C2CN3CCC2CC3)on1 (racemic) [Example E1, (±) 3-(1,2-Oxazol-5-yl)-1-azabicyclo[2.2.2]octane] | 15500 | 477 |
| Cc1cc([C@@H]2CN3CC[C@@H]2C3)on1 (relative stereo) [Example E9, (±) exo-3-(3-Methyl-1,2-oxazol-5-yl)-1-azabicyclo[2.2.1]heptane] | 7500 | 102 |
| c1ncc(C2CN3CCC2CC3)o1 (racemic) [Example E11, (±) 3-(1,3-Oxazol-5-yl)-1-azabicyclo[2.2.2]octane] | 24000 | 480 |
| c1cc([C@@H]2CN3CC[C@@H]2C3)on1 (relative stereo) [Example E13, (±) exo-3-(1,2-Oxazol-5-yl)-1-azabicyclo[2.2.1]heptane] | 30300 | 173 |
| Cc1ncc(C2CN3CCC2CC3)o1 (racemic) [Example E7, (±) 3-(2-Methyl-1,3-oxazol-5-yl)-1-azabicyclo[2.2.2]octane] | 4400 | 105 |
| Cc1ccc([C@@H]2CN3CC[C@@H]2C3)o1 (relative stereo) [Example E5, (±) exo-3-(5-Methyl-fur-2-yl)-1-azabicyclo[2.2.1]heptane] | 3200 | 115 |
| Cc1cc(C2CN3CCC2CC3)on1 (racemic) [Example E6, (±)3-(3-Methyl-1,2-oxazol-5-yl)-1-azabicyclo[2.2.2]octane] | 4300 | 395 |
| Cc1ncc([C@@H]2CN3CC[C@@H]2C3)o1 (relative stereo) [Example E8A, (±) exo- and endo-3-(2-Methyl-1,3-oxazol-5-yl)-1-azabicyclo[2.2.1]heptane] | 7500 | 24 |
| CCc1ncc(C2CN3CCC2C3)o1 (racemic) [Example E14, (±) 3-(2-Ethyl-1,3-oxazol-5-yl)-1-azabicyclo[2.2.1]heptane] | 9600 | 800 |
